PMC8607231, “Generation of KS-133 as a Novel Bicyclic Peptide with a Potent and Selective VIPR2 Antagonist Activity that Counteracts Cognitive Decline in a Mouse Model of Psychiatric Disorders” (Frontiers in Pharmacology, 2021)
Where a SMILES comes first, the peptide text is derived from it. Bridges are numbered along the chain shown (N, C = ends).

Key:
human VIPR1 = target: T1, human VIPR1 (Homo sapiens, UniProt P32241); experiment: Calcium influx assay, antagonist activity against VIP-VIPR1 signaling; assay type: cell-based; settings: ligand VIP (25 nM) at EC80; CHO-K1 cells; n = 4 wells, ± S.E.M; read-out: Ca influx assay [IC50 (nM)] VIPR1
T1 construct: host or cells: CHO-K1
T1 sequence (P32241 31-457): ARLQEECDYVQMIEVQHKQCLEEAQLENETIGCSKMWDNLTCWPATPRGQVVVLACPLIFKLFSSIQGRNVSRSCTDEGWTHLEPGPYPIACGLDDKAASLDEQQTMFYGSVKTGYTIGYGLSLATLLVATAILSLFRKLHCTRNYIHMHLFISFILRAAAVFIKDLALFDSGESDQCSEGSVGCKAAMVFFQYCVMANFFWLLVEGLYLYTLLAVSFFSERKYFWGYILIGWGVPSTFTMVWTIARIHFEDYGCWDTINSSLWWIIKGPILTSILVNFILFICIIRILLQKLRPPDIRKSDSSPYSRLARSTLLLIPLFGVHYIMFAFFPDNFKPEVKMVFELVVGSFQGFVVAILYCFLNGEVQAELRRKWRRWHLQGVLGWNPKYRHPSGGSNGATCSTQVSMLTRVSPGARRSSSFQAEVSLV
Method: (§1) Evaluation of antagonist activities of peptides against VIP-VIPR1, VIP-VIPR2, and PACAP-PAC1 signaling pathways and agonistic activity of KS-133 at VIPR2 was carried out by Eurofins DiscoverX (Fremont, CA, United States). Intracellular calcium mobilization was monitored using a calcium-sensitive dye loaded in CHO-K1 cells expressing human VIPR1 (ITEM 86-0030P-2243AN), VIPR2 (ITEM 86-0030P-2244AN), and PAC1 (ITEM 86-0030P-2066AN). The cells were preincubated with antagonistic peptides for 30 min at room temperature in the dark. After addition of the ligand at EC80, calcium mobilization was immediately monitored by FLIPR Tetra for 2 min. Cyclic AMP production in CHO-K1 cells expressing human VIPR2 was evaluated using HitHunter® cAMP assays (antagonist mode: ITEM 86-0007P-2362AN; agonist mode: ITEM 86-0007P-2362AG). The cells were preincubated with antagonistic peptides for 30 min at room temperature. After addition of the ligand at EC80, cells were further incubated for 30 min at room temperature. Cells were lysed and the cAMP content of the cell lysate was determined by the β-galactosidase-based enzyme fragment complementation assay ([Eglen, 2002]). IC50 values were estimated by the following equation: IC50 = 10^[Log(A/B) × (50–D)/(C–D) + Log(B)], where A is the concentration at >50% inhibition, B is the concentration at <50% inhibition, C is the inhibition rate at concertation A, and D is the inhibition rate at concertation B.
First, the antagonistic activities of parental VIpep-3, KS-132, KS-133 (monocyclic) (no bridging between Lys^7 and Asp^11), and KS-133 against human VIPR1, VIPR2, and PAC1 were evaluated by a calcium influx assay. After antagonistic peptide treatment for 30 min, ligand at a concentration of EC80 was added to the cells and then calcium signaling was measured.
FIGURE 3 Antagonistic/agonistic activities of peptides in the calcium influx and cAMP assays. For evaluation of the antagonistic activity, the cells were preincubated with antagonistic peptides for 30 min. In the calcium influx assay, after addition of ligand at EC80, calcium mobilization was monitored immediately (see details in the Methods section) (n = 4 wells for each treatment). In the cAMP assay, after a 30 min incubation with the ligand at EC80, cAMP production in cells was measured (see details in the Methods section) (n = 4 wells for each treatment).

human VIPR2 = target: T2, human VIPR2 (Homo sapiens, UniProt P41587); experiment: HitHunter cAMP assay, antagonist mode; assay type: cell-based
T2 construct: host or cells: CHO-K1
T2 sequence (P41587 24-438): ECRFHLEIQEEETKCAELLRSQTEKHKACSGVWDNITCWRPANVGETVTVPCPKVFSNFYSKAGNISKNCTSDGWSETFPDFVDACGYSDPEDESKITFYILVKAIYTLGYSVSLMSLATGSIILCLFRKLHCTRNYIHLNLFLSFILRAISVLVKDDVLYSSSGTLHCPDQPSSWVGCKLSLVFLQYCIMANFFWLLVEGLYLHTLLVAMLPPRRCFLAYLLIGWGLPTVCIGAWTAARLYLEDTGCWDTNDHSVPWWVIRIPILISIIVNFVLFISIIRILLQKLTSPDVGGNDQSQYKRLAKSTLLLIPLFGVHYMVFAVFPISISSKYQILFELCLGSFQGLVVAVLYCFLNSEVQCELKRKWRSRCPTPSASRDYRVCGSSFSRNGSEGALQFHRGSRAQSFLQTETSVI
Method: as §1, with “The cells were preincubated with antagonistic peptides for 30 min at room temperature. After addition of the ligand at EC80, cells were further incubated for 30 min at room temperature.” left out, “IC50 values were estimated by the following equation: IC50 = 10^[Log(A/B) × (50–D)/(C–D) + Log(B)], where A is the concentration at >50% inhibition, B is the concentration at <50% inhibition, C is the inhibition rate at concertation A, and D is the inhibition rate at concertation B.” left out
FIGURE 3 Antagonistic/agonistic activities of peptides in the calcium influx and cAMP assays. […] In the calcium influx assay, after addition of ligand at EC80, calcium mobilization was monitored immediately (see details in the Methods section) (n = 4 wells for each treatment). […]
Next, antagonistic and agonistic activities of KS-133 at VIPR2 were evaluated by a cAMP assay. […]

IC50 (human VIPR1): > 5000 nM
IC50 (human VIPR2; ligand VIP (0.5 nM) at EC80, CHO-K1 cells, n = 4 wells, ± S.E.M): 500 ± 79 nM
SMILES: CC[C@H](C)[C@H](NC(=O)[C@H](CC(C)C)NC(=O)[C@@H]1CC(=O)NCCCC[C@@H]2NC(=O)[C@@H]3CCCN3C(=O)[C@H](CC(C)C)NC(=O)[C@H](Cc3ccc(O)cc3)NC(=O)[C@@H]3CCCN3C(=O)[C@@H]3CCCN3C(=O)[C@@H](NC(C)=O)CSSC[C@H](NC(=O)[C@H](CC(C)C)NC(=O)[C@H](Cc3ccc(O)cc3)NC2=O)C(=O)N1)C(N)=O [KS-133, Ac-c[Cys-Pro-Pro-Tyr-Leu-Pro-c(Lys-Tyr-Leu-Cys]-Asp)-Leu-Ile-NH2] (Ac-CPPYLPKYLCDLI-NH2; disulfide 1-10; lactam 7-11)
Antagonism of VIP-VIPR2 signaling pathway (human VIPR2; cAMP assay): antagonized VIP-VIPR2 signaling pathway in a peptide concentration-dependent manner
